Measured values as given in article PMC5733478, “A Non-imaging High Throughput Approach to Chemical Library Screening at the Unmodified Adenosine-A3 Receptor in Living Cells” (Frontiers in Pharmacology, 2017).
Counter-ions that a name gives are not always drawn. Like-named read-outs stand apart in the source and are kept apart here.

Target: T1, human A3AR (Homo sapiens, UniProt P0DMS8)
T1 construct: expressed in transfected cells
T1 sequence (P0DMS8 1-318): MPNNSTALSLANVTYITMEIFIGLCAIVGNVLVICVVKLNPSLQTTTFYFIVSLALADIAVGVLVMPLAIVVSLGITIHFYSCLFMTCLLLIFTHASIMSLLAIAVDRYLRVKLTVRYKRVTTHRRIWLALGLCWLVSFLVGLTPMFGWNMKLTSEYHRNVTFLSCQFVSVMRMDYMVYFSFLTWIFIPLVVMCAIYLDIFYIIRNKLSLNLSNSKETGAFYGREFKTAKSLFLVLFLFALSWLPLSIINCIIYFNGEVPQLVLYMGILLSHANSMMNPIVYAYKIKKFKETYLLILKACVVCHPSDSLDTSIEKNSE
Experiment: LOPAC library primary screen: single concentration (10 μM) inhibition of 25 nM CA200645 binding, PHERAstar FS

[1] = % of control wells (1% DMSO and 25 nM CA200645), compounds at 10 µM, whole live cells expressing the A3AR, mean ± SD, three experiments in duplicate

| Structure (SMILES) | % 25 nM CA200645 binding | other results |
| --- | --- | --- |
| COc1cccc(OC)c1OCCNCC1CSc2ccccc2O1 (stereo not drawn) [Benoxathian hydrochloride] | 95.8 ± 4.4% |  |
| CCCN(CCC)C1Cc2cc(OC)c(OC)cc2C1.O=C(O)/C=C\C(=O)O [U-99194A maleate] | 101.3 ± 8.9% |  |
| COc1cc(OC)cc(-c2cc3cnc(N)nc3nc2NC(=O)NC(C)(C)C)c1 [PD-166866] | 34.3 ± 9.7% |  |
| CCc1ccccc1OC[C@@H](O)CN[C@H]1CCCc2ccccc21.O=C(O)C(=O)O [SR 59230A oxalate] | 94.8 ± 26.7% |  |
| CN1CCN(CCCN2c3ccccc3Sc3ccc(Cl)cc32)CC1 [Prochlorperazine dimaleate] | 90.4 ± 18.3% |  |
| CCCCCCCC/C=C\CCCCCCCC(=O)NCCO [N-Oleoylethanolamine] | 98.2 ± 10.8% |  |
| Nc1nc(N)c2nc(-c3ccccc3)c(N)nc2n1 [Triamterene] | 95.3 ± 10.4% |  |
| Cc1cccc(C)c1N=C1NCCCS1 [Xylazine hydrochloride] | 106.3 ± 5.8% |  |
| COc1ccccc1N1CCNCC1.Cl | 114.8 ± 8.3% |  |
| O=C1NC(c2cccc([N+](=O)[O-])c2)=CCN1c1ccccc1O [Icilin] |  | % 25 nM CA200645 binding [1]: 88.5 ± 5.8% |
| Cl.O=c1[nH]oc2c1CCNC2 [THIP hydrochloride] | 100.3 ± 3.4% |  |
| CC1CCN=C(N)S1.Cl (racemic) [(±)-AMT hydrochloride] | 100.6 ± 12.5% |  |
| O=c1c(O)c(-c2ccc(O)cc2O)oc2cc(O)cc(O)c12 [Morin] | 72.1 ± 9.6% |  |
| S=C(Nc1ccccc1)Nc1nccs1 [1-Phenyl-3-(2-thiazolyl)-2-thiourea] | 94.0 ± 11.6% |  |
| Cc1cccc(-c2[nH]c(C(C)(C)C)nc2-c2ccc3nccnc3c2)n1 [SB-525334] | 76.3 ± 9.5% |  |
| O=C1CCc2cc(OCCCCc3nnnn3C3CCCCC3)ccc2N1 [Cilostazol] | 105.8 ± 41.7% |  |
| CCS(=O)(=O)Nc1cccc(C(=C2CCCCC2)c2cnc[nH]2)c1 [A-315456] | 92.6 ± 5.2% |  |
| CN(N=O)c1ccc(O)c(O)c1 [Me-3,4-dephostatin] | 87.0 ± 11.0% |  |
| NCC(O)(CS(=O)(=O)O)c1ccc(Cl)cc1 (stereo not drawn) [2-Hydroxysaclofen] | 92.7 ± 0.2% |  |
| O=C(O)CCCCCCCC(=O)O [Azelaic acid] | 91.8 ± 5.2% |  |
| O=C(c1ccc2c(c1)OCCO2)N1CCCCC1 [CX 546] | 95.5 ± 26.6% |  |
| O=C(O)c1cc(=O)c2c(Cl)cc(Cl)cc2[nH]1 [5,7-Dichlorokynurenic acid] | 100.9 ± 8.8% |  |
| N=C(N)NC(CCC(=O)O)C(=O)O (stereo not drawn) [alpha-Guanidinoglutaric acid] | 76.4 ± 9.5% |  |
| NN=C(N)N.NN=C(N)N.O=S(=O)(O)O [Aminoguanidine hemisulfate] | 99.2 ± 8.4% |  |
| CNC[C@H](O)c1ccc(O)c(O)c1 [(-)-Epinephrine bitartrate] | 100.5 ± 6.3% |  |
| CC(N)(Cc1ccc(O)cc1)C(=O)O (racemic) [DL-alpha-Methyl-p-tyrosine] | 102.4 ± 5.8% |  |
| N.N.O=C([O-])C1(C(=O)[O-])CCC1.[Pt+2] [Carboplatin] | 97.7 ± 5.9% |  |

| Structure (SMILES) | % 25 nM CA200645 binding | other results |
| --- | --- | --- |
| NC(=O)C1=CN([C@@H]2O[C@H](COP(=O)([O-])OP(=O)([O-])OC[C@H]3O[C@@H](n4cnc5c(N)ncnc54)[C@H](OP(=O)([O-])[O-])[C@@H]3O)[C@@H](O)[C@H]2O)C=CC1.[Na+].[Na+].[Na+].[Na+] [NADPH tetrasodium] | 112.0 ± 13.1% |  |
| CC(=O)NNC(=O)N1Cc2ccccc2Oc2ccc(Cl)cc21 [SC 19220] | 105.0 ± 9.4% |  |
| CCCCCCCCCCCCCCC[C@H](O)[C@H](N)CO (racemic) [DL-erythro-Dihydrosphingosine] | 98.5 ± 11.2% |  |
| Cc1cc2c(cc1Cl)N(C(=O)Nc1cccc3ncccc13)CC2 [SB-215505] | 98.1 ± 14.8% |  |
| COC1=C(OC)C(=O)c2ccccc2C1=O [2,3-Dimethoxy-1,4-naphthoquinone] | 99.3 ± 8.8% |  |
| Cc1nc2c([nH]1)c(=O)n(C)c(=O)n2Cc1ccco1 [Furafylline] |  | % 25 nM CA200645 binding [1]: 49.5± 5.8% |
| Ic1ccccc1CNC1C2CCN(CC2)C1C(c1ccccc1)c1ccccc1.O=C(O)C(=O)O [L-703,606 oxalate salt hydrate] | 93.3 ± 4.4% |  |
| COc1ccc2c(c1)CC[C@@H]1[C@@H]2CC[C@]2(C)[C@@H](NCCCCCCN3C(=O)CCC3=O)CC[C@@H]12 [U-73343] | 99.9 ± 5.3% |  |
| O=C(O)CCC(=O)O.c1ccc(C2(c3ccccc3)CC2C2=NCCN2)cc1 (stereo not drawn) [Cibenzoline succinate] | 95.2 ± 7.2% |  |
| CC[C@H](C)C(=O)O[C@H]1CCC=C2C=C[C@H](C)[C@H](CC[C@@H]3C[C@@H](O)CC(=O)O3)[C@H]21 [Mevastatin] |  | % 25 nM CA200645 binding (compounds tested at 10 µM, % of control wells (1% DMSO and 25 nM CA200645), whole live cells expressing the A3AR, mean ± SD, three experiments in duplicate): 107.1 ± 10.0% |
| CCN1C(=O)C=CC1=O [N-Ethylmaleimide] | 99.8 ± 13.3% |  |
| CNCCNS(=O)(=O)c1cccc2cnccc12.Cl.Cl [H-8 dihydrochloride] | 106.4 ± 6.7% |  |
| Nc1nc2c(ncn2COCCO)c(=O)[nH]1 [Acyclovir] | 99.9 ±13.7% |  |
| Cc1nc2n(c(=O)c1CCN1CCC(c3noc4cc(F)ccc34)CC1)CCCC2O (stereo not drawn) [Paliperidone] | 94.9 ± 1.6% |  |
| Br.CCCN(CCC)C1CCc2cccc(O)c2C1 (racemic) [(±)-8-Hydroxy-DPAT hydrobromide] | 98.2 ± 1.8% |  |
| OC[C@H]1NC[C@H](O)[C@@H](O)[C@@H]1O [1-Deoxynojirimycin hydrochloride] | 98.5 ± 11.6% |  |
| CN1C[C@H](O)[C@@H](O)[C@H](O)[C@H]1CO [N-Methyl-1-deoxynojirimycin] | 100.7 ± 20.9% |  |
| Cc1c(OCC(F)(F)F)ccnc1C[S+]([O-])c1nc2ccccc2[nH]1 (stereo not drawn) [Lansoprazole] | 100.3 ± 13.0% |  |
| CC(C)Cc1ccc([C@H](C)C(=O)O)cc1 [S(+)-Ibuprofen] | 107.7 ± 17.0% |  |
| CCn1cc(C(=O)O)c(=O)c2cc(F)c(N3CCNC(C)C3)c(F)c21 (stereo not drawn) [Lomefloxacin hydrochloride] | 96.9 ± 10.1% |  |
| CCC(C)N(C)C(=O)c1cc2ccccc2c(-c2ccccc2Cl)n1 (stereo not drawn) [PK 11195] | 93.2 ± 6.1% |  |
| COc1cc(CNC(=O)CCCCCCC(C)C)ccc1O [Dihydrocapsaicin] | 86.7 ± 9.6% |  |
| CN(C)C(N)=NCCC[C@H](N)C(=O)O.Cl [N^G,N^G-Dimethylarginine hydrochloride] | 101.2 ± 10.7% |  |
| COc1ccc(CN(CCN(C)C)c2ccccn2)cc1 [Pyrilamine maleate] | 84.6 ± 34.1% |  |
| Oc1ccc(O)cc1 [Hydroquinone] | 100.7 ± 6.6% |  |
| CCCn1c(=O)[nH]c(=O)c2nc[nH]c21 [3-n-Propylxanthine] | 101.0 ± 10.1% |  |
| C[C@@H]1O[C@@H](O[C@H]2C[C@@H](O)[C@]3(CO)[C@H]4[C@H](O)C[C@]5(C)[C@@H]([C@@H]6COC(=O)C6)CC[C@]5(O)[C@@H]4CC[C@]3(O)C2)[C@H](O)[C@H](O)[C@H]1O [Dihydroouabain] | 102.4 ± 11.9% |  |
